# In paper PMC4984800, “A first in man, dose-finding study of the mTORC1/mTORC2 inhibitor OSI-027 in patients with advanced solid malignancies” (British Journal of Cancer, 2016):
# Where two headings read alike, the source gives them in different places.
# What was measured:
# pPRAS40 (Thr246) in PBMC = test: Pharmacodynamics in PBMC: pPRAS40 (Thr246), mTORC2 effector; type: in vivo, human
# Method: (§1) Drug-mediated inhibition of the mTORC1 and mTORC2 signalling was evaluated through assessing modulation of phospho-4EBP1 and phospho-PRAS40 in PBMC, as well as phospho-4EBP1 and phospho-S6 in tumour biopsies. Blood aliquots were collected prior to start dosing and at prespecified time points during the first course of treatment. Fresh tumour biopsies were obtained from selected patients during the dose escalation stage and from all patients in the expansion cohorts, at baseline and during cycle 1.
# (§2) Drug-mediated inhibition of mTORC1 and mTORC2 signalling by OSI-027 was assessed by measuring inhibition of their effectors p4EBP1 (Thr37/46) and pPRAS40 (Thr246), respectively, in PBMC. In addition, paired tumour biopsies at screening and during first month of therapy were used to study target modulation.
# pS6 in tumour biopsies = test: Paired tumour biopsies: pS6 immunohistochemistry; type: in vivo, human
# Method: as §1, §2
# (§3) In 21 cases, pre- and postdose paired tumour biopsies were amenable for PD studies.
# [1] = system: p4EBP1 in tumour biopsies; test: Paired tumour biopsies: p4EBP1 immunohistochemistry; type: in vivo, human
# Method: as §1, §2, §3
# [2] = system: p4EBP1 (Thr37/46) in PBMC; test: Pharmacodynamics in PBMC: p4EBP1 (Thr37/46), mTORC1 effector; type: in vivo, human
# Method: as §1, §2
# mTORC2 = system: mTORC2; set-up: method as in Bhagwat et al, 2011; Falcon et al, 2011; conditions: ref Bhagwat et al, 2011, Falcon et al; cited from earlier work
# [3] = preclinical toxicology studies; cited from earlier work
# [4] = monkeys; preclinical; cited from earlier work
# tumour xenograft models = system: tumour xenograft models; set-up: method as in Bhagwat et al, 2011; Falcon et al, 2011; conditions: ref Bhagwat et al, 2011, Falcon et al; cited from earlier work
# [5] = First-in-human trial: dose-limiting toxicities, adverse events, tolerability; type: in vivo
# Excerpt: Three different schedules of administration were investigated during the dose-escalation phase: once daily for three consecutive days every week (Schedule 1 (S1)), once weekly (Schedule 2 (S2)) and continuous once daily (Schedule 3 (S3)). The primary objective of the study was to determine MTD and recommend a dose and schedule of OSI-027 for phase 2 trials. Secondary objectives included tolerability, safety and pharmacokinetics profile, assessment of pharmacodynamics and preliminary antitumour activity.
# Dose escalation was pursued independently for each schedule following a 3+3 design. Escalation was permitted if <33% patients on a dose level experienced dose-limiting toxicities (DLT), defined as any non-haematological adverse event grade ⩾3 (NCI-CTCAE v3) related with the study drug occurring during the first cycle of treatment (21 days), with the exception of […] fatigue, nausea, vomiting and/or diarrhoea. In addition, absolute reduction ⩾15% on LVEF was also considered DLT. MTD was defined as the immediately lower dose level to the one where ⩾33% of patients experienced DLT.
# Adverse events and concomitant medications were recorded throughout the trial participation.
# Guidelines for dose modifications were implemented; drug administration was halted and/or dose was reduced for creatinine increase grade ⩾2 and/or if absolute values of LVEF fell ⩾15% from baseline. Permanent treatment discontinuation was mandated for LVEF drops ⩾20%.
# [6] = rodents; preclinical; cited from earlier work
# [7] = 4 h after dosing, doses over 30 mg, almost universal
# [8] = S1, 90 mg, during the 3 days on treatment
# [9] = S1, 160 mg, during the 4-days off treatment, most patients
structure (smiles),measurement,setting,value
COc1cccc2cc(-c3nc([C@H]4CC[C@H](C(=O)O)CC4)n4ncnc(N)c34)[nH]c12 [OSI-027],inhibition of pPRAS40 in PBMC,pPRAS40 (Thr246) in PBMC; [7],Over 50%
same,inhibition of pPRAS40 in PBMC,pPRAS40 (Thr246) in PBMC; [8],Over 50%
same,target inhibition (pPRAS40) in PBMC,pPRAS40 (Thr246) in PBMC; [9],Over 50%
same,average reduction in pS6 expression (IHC),pS6 in tumour biopsies; 90 mg,28.6%
same,average reduction in pS6 (IHC),pS6 in tumour biopsies; 120 mg,75.3%
same,average reduction in p4EBP1 IHC staining,"[1]; 90 mg—S1, paired tumour biopsies",22.3%
same,average reduction in p4EBP1 IHC staining,"[1]; 120 mg—S1, paired tumour biopsies",49.5%
same,average reduction in p4EBP1 IHC staining,"[1]; 240 mg—S2, paired tumour biopsies",67.6%
same,inhibition of p4EBP1 in PBMC,[2]; [7],Over 50%
same,inhibition of p4EBP1 in PBMC,[2]; [8],Over 50%
same,target inhibition (p4EBP1) in PBMC,[2]; [9],Over 50%
same,IC50,mTORC2,65 nM
same,preclinical toxicology findings,[3],"signs of immunosuppression, renal function impairment, glucose metabolism abnormalities as well as potential for cardiac and ocular toxicities at high doses"
same,maximum tolerated dose (MTD) in toxicology studies,[4],2.5 mg kg^−1 per day
same,anti tumour activity in tumour xenograft models,tumour xenograft models,anti tumour activity was documented
same,highest potentially feasible dose,"[5]; S1, QD three consecutive days per week",120 mg
same,MTD,"[5]; S2, once weekly, 10 to 240 mg QWK tested",Dose escalation was discontinued before a formal MTD was reached
same,MTD,"[5]; S3, continuous once daily",30 mg QD
same,"Maximum creatinine on treatment CTCAE grade 4, patients","[5]; human, in vivo",0
same,"creatinine rise (increase of at least one grade in CTCAE v3), patients","[5]; human, in vivo",26%
same,"cutaneous toxicities, mainly grade 1–2 macular or maculo-papular rash, patients","[5]; human, in vivo",25%
same,patients who discontinued drug permanently due to drug-related adverse events,"[5]; human, in vivo",8.1%
same,patients with a grade ⩾3 drug-related event,"[5]; human, in vivo",17%
same,patients with a drop in the LVEF,"[5]; human, in vivo, 3 weeks",38%
same,Dose limiting toxicity,"[5]; human, in vivo, 12 days",Elevated serum creatinine (G2)
same,Dose limiting toxicity,"[5]; human, in vivo, 13 days",Fatigue (G3)
same,Dose limiting toxicity,"[5]; human, in vivo, 14 days",Bone pain (G3)
same,Dose limiting toxicity,"[5]; human, in vivo, 15 days",Stress-induced cardiomyopathy (G3)
same,DLT grade 2 decreased LVEF,"[5]; human, in vivo, 21 days",1 events
same,DLT grade 3 bone pain,"[5]; human, in vivo, 21 days",1 events
same,DLT grade 3 cardiomyopathy,"[5]; human, in vivo, 21 days",1 events
same,DLT grade 3 fatigue,"[5]; human, in vivo, 21 days",4 events
same,DLT grade 3 hyperglycaemia,"[5]; human, in vivo, 21 days",1 events
same,DLT grade 3 maculo-papular rash,"[5]; human, in vivo, 21 days",1 events
same,DLT grade ⩾2 creatinine rise,"[5]; human, in vivo, 21 days",2 events
same,Dose limiting toxicity,"[5]; human, in vivo, 21 days",Urticaria (G3)
same,patients with dose-limiting toxicities (DLT),"[5]; human, in vivo, 21 days",11 patients
same,Dose limiting toxicity,"[5]; human, in vivo, 22 days",Decreased LVEF (G2)
same,patients needing a dose reduction,[5]; in vivo,over half of the patients
same,individuals who died during study participation,"[5]; including post-treatment 30 days follow-up, none judged drug-related",eight
same,maximum tolerated dose (MTD) in toxicology studies,[6],20 mg kg^−1 per day
